Data on twelve compounds can be found in the Kinase Knowledgebase extract (Sharma et al. 2016).

In assay [1] the target is EGFR (human) (UniProt P00533). To be noted: a431.
Assay [2] deals with EGFR (human) (UniProt P00533). To be noted: a431, concentration not given here.
Another assay deals with EGFR (murine) (UniProt P00533). To be noted: balb/mk cells.
Another assay addresses EGFR (UniProt P00533).

SMILES strings stand for the structures. Where only a bound is given, the exact number is not on record here.

Chain of EGFR (murine) (P00533 whole entry, looked up): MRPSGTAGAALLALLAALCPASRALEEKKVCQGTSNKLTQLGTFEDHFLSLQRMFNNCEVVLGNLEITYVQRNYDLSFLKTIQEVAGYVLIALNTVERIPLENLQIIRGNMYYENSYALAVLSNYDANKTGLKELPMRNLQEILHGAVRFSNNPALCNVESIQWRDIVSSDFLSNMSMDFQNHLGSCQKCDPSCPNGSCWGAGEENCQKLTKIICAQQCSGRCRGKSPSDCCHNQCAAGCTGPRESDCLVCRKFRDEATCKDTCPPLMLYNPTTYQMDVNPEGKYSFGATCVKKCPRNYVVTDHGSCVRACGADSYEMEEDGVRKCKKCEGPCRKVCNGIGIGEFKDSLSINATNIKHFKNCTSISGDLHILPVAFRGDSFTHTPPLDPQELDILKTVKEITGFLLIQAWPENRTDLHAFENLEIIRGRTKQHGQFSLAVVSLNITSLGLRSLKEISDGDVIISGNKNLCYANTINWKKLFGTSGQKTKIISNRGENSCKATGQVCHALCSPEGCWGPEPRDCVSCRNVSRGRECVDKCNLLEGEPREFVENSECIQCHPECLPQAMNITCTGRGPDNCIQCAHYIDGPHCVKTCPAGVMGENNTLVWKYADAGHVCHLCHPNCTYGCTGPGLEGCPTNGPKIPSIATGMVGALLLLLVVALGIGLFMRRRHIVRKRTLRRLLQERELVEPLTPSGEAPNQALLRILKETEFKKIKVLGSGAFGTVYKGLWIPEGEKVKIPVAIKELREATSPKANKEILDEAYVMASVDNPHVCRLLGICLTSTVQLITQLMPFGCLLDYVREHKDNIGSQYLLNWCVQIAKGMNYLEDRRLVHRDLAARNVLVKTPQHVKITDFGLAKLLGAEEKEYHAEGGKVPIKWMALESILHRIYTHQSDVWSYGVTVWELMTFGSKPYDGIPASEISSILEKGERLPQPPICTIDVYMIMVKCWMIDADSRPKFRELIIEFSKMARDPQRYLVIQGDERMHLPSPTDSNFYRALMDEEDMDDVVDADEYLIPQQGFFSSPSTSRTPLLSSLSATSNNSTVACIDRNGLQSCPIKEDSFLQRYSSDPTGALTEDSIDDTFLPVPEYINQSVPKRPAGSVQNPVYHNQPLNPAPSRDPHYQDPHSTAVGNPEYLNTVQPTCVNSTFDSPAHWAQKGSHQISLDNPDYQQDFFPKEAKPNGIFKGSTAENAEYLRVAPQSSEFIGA
Chain of EGFR (human) (P00533 whole entry, looked up): as above
Chain of EGFR (P00533 whole entry, looked up): as above

For `C=C(CN(C)C)C(=O)c1ccccc1`, at EGFR (human) [1], the IC50 (usually the concentration needed to halve the response being measured) was > 100 µM.

For `C=C(CN1CCCCC1)C(=O)c1ccc(OCc2ccccc2)cc1`, the IC50 against EGFR (human) [1] was > 100 µM.

On to `C=C(CN(C)C)C(=O)c1ccc(OCc2ccccc2)c(O)c1`, for which the IC50 against EGFR (human) [1] is > 100 µM.

Turning to `C=C(CN1CCOCC1)C(=O)c1ccc(OCc2ccccc2)cc1`, at EGFR (human) [2], the inhibition (in general, the change of the read-out against control, counted positive when it falls) stood at 100%.

With `CC(CN(C)C)C(=O)c1ccc(OS(=O)(=O)c2ccc(C(=O)O)cc2)cc1` (stereo not given), the IC50 with EGFR (murine) is > 50 µM.

Take `CN(C)CCCC(=O)c1ccc(OCc2ccccc2)cc1`: the IC50 with EGFR (murine) was > 50 µM.

Turning to `C=C(CN(C)C)C(=O)c1ccc(OS(=O)(=O)c2ccc(C(=O)O)cc2)cc1`, the half-maximal inhibitory concentration (IC50) with EGFR (murine) is > 50 µM.

As for `O=C(CCN1CCOCC1)c1ccc(OCc2ccccc2)cc1`, the IC50 on EGFR (human) [1] is > 100 µM.

Turning to `N#CC(C#N)=Cc1cc(O)c(O)c(O)c1`, the IC50 was determined as 70 µM against EGFR and 31.1 µM with EGFR (murine).

In the case of `CCOC(=O)C1CCN(CCC(=O)c2ccc(OCc3ccccc3)cc2)CC1`, on EGFR (human) [1], the IC50 was > 100 µM.

On to `CN(C)CCC(=O)c1ccc(OCc2ccccc2)cc1`, for which the IC50 at EGFR (human) [1] was > 100 µM.

`C=C(CN1CCN(C)CC1)C(=O)c1ccc(OCc2ccccc2)cc1`: the IC50 is 1.5 µM on EGFR, > 100 µM against EGFR (human) [1] and 0.95 µM with EGFR (murine).
